Measured values from patent publication US20070117770A1, “Human ribosomal DNA (rDNA) and ribosomal RNA (rRNA) nucleic acids and uses thereof” (Cylene Pharmaceuticals, Inc., priority 2005, published 2007).

Experiments:
Experiment in all cases: Protein kinase inhibition assay
JAK3(h) = JAK3(h) (Homo sapiens, UniProt P52333); type: biochemical; settings: read-out: percent residual activity of JAK3(h)
Method: (§1) Certain compounds were tested for activity in protein kinase inhibition assays. All substrates were dissolved and diluted to working stocks in de-ionized water, apart from histone H1 (10× working stock in 20 mM MOPS pH 7.0), PDKtide (10× working stock in 50 mM Tris pH 7.0) ATF2 (which is typically stored at a 20× working stock in 50 mM Tris pH 7.5, 150 mM NaCl, 0.1 mM EGTA, 0.03% Brij-35, 50% glycerol, 1 mM benzamidine, 0.2 mM PMSF and 0.1% R-mercaptoethanol), KKLNRTLSFAEPG (SEQ ID NO:203) and RRRLSFAEPG (SEQ ID NO:204) (50 mM HEPES pH 7.4) and GGEEEEYFELVKKKK (SEQ ID NO:205) (20 mM MOPS pH 7.0). All kinases were pre-diluted to a 10× working concentration prior to addition into the assay. The composition of the dilution buffer for each kinase is detailed below.
(§2) In a final reaction volume of 25 μl, JAK3 (h) (5-10 mU) is incubated with 8 mM MOPS pH 7.0, 0.2 mM EDTA, 500 μM GGEEEEYFELVKKKK (SEQ ID NO:218), 10 mM MgAcetate and [gamma-33P-ATP] (specific activity approx. 500 cpm/pmol, concentration as required). The reaction is initiated by the addition of the MgATP mix. After incubation for 40 minutes at room temperature, the reaction is stopped by the addition of 5 μl of a 3% phosphoric acid solution. 10 μl of the reaction is then spotted onto a P30 filtermat and washed three times for 5 minutes in 75 mM phosphoric acid and once in methanol prior to drying and scintillation counting.

MST2(h) = MST2(h) (Homo sapiens, UniProt Q13188); type: biochemical; settings: read-out: percent residual activity of MST2(h)
Chain of MST2(h) (Q13188 whole entry): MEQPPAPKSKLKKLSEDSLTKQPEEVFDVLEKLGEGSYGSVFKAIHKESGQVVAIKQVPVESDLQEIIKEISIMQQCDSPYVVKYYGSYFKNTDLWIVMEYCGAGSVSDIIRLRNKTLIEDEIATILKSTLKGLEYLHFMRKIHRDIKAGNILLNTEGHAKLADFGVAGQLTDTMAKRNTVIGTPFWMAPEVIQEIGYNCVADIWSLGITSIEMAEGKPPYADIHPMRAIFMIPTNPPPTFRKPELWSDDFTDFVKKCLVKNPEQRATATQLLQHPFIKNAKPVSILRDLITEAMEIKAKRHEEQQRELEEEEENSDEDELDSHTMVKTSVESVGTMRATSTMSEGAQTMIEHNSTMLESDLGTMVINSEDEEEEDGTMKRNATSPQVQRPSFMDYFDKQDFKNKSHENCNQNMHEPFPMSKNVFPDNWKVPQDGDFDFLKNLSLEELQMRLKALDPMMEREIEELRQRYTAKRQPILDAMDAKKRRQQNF
Method: as §1
as §2, with “MST2” for “JAK3”, “0.33 mg/ml myelin basic protein,” for “500 μM GGEEEEYFELVKKKK (SEQ ID NO:218),”

c-RAF(h) = type: biochemical, human; settings: 2.5 μM
Method: as §1
as §2, with “c-RAF” for “JAK3”, “25” for “8”, “Tris” for “MOPS”, “7.5, 0.02” for “7.0, 0.2”, “EGTA, 0.66 mg/ml myelin basic protein,” for “EDTA, 500 μM GGEEEEYFELVKKKK (SEQ ID NO:218),”

ErbB4(h) = ErbB4(h) (Homo sapiens, UniProt Q15303); type: biochemical; settings: read-out: percent residual activity of ErbB4(h)
Chain of ErbB4(h) (Q15303 26-1308): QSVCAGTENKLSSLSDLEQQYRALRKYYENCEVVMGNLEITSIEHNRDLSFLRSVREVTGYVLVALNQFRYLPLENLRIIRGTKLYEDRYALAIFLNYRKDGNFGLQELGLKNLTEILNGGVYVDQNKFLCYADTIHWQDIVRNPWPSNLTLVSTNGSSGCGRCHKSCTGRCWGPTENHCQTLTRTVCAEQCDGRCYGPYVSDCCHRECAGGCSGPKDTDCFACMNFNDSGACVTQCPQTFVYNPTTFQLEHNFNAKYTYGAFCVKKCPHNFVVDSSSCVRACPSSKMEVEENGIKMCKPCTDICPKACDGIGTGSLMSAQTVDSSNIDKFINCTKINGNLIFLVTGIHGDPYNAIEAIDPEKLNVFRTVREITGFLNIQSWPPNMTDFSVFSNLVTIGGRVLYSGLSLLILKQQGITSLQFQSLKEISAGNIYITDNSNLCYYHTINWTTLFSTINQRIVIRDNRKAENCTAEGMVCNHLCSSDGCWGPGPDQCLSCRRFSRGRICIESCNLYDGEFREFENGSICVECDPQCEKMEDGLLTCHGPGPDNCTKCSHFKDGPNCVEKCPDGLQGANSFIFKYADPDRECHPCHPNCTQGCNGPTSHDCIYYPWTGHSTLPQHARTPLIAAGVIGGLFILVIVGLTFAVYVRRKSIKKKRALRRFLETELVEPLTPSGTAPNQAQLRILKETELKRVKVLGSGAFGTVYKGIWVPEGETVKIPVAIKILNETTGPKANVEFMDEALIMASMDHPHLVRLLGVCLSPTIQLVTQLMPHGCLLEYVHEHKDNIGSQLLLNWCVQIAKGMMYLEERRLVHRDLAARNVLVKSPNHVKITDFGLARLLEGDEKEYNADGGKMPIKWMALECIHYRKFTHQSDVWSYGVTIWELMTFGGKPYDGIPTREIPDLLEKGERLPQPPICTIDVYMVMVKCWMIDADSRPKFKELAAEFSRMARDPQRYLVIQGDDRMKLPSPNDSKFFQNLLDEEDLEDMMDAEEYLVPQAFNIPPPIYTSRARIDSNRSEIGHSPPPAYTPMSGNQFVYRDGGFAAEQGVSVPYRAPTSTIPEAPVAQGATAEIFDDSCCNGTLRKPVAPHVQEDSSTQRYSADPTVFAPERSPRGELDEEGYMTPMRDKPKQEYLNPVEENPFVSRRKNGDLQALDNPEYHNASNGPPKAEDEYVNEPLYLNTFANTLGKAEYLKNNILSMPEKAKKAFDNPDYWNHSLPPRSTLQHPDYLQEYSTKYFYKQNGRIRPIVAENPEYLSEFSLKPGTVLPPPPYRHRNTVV
Method: as §1
as §2, with “μl, ErbB4” for “μl, JAK3”, “EDTA, 2.5 mM MnCl2, 0.1 mg/ml poly(Glu, Tyr) 4:1,” for “EDTA, 500 μM GGEEEEYFELVKKKK (SEQ ID NO:218),”, “10 ll” for “10 μl”, “a Filtermat A” for “a P30 filtermat”

EphA3(h) = EphA3(h) (Homo sapiens, UniProt P29320); type: biochemical; settings: read-out: percent residual activity of EphA3(h)
Chain of EphA3(h) (P29320 21-983): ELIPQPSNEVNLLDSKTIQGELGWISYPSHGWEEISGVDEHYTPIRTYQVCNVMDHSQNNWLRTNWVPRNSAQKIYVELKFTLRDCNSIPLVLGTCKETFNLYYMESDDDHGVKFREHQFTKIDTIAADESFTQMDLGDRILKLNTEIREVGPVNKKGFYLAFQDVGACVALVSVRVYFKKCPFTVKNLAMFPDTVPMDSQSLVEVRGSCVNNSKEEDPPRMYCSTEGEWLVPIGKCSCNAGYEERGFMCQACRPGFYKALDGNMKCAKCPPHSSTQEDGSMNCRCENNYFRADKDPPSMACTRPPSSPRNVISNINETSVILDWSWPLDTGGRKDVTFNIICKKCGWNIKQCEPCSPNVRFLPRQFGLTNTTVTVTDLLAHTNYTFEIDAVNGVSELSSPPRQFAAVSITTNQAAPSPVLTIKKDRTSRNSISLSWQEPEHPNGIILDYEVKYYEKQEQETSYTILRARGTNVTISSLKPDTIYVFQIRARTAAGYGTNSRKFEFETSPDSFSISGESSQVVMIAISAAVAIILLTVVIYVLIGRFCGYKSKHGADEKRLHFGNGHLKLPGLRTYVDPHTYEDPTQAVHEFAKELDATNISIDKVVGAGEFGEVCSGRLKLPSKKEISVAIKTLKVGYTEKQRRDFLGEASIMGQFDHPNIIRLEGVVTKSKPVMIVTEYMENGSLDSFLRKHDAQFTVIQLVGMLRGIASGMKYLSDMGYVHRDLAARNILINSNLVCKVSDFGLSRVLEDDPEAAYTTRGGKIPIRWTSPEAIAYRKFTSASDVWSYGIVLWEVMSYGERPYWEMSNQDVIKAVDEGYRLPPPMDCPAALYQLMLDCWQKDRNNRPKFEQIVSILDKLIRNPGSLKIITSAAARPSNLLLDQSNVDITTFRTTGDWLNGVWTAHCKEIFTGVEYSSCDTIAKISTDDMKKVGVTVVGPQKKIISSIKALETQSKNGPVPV
Method: as §1
as §2, with “EphA3” for “JAK3”, “0.1 mg/ml poly(Glu, Tyr) 4:1,” for “500 μM GGEEEEYFELVKKKK (SEQ ID NO:218),”, “Filtermat A” for “P30 filtermat”

DDR2(h) = DDR2(h) (Homo sapiens, UniProt Q16832); type: biochemical; settings: read-out: percent residual activity of DDR2(h)
Chain of DDR2(h) (Q16832 22-855): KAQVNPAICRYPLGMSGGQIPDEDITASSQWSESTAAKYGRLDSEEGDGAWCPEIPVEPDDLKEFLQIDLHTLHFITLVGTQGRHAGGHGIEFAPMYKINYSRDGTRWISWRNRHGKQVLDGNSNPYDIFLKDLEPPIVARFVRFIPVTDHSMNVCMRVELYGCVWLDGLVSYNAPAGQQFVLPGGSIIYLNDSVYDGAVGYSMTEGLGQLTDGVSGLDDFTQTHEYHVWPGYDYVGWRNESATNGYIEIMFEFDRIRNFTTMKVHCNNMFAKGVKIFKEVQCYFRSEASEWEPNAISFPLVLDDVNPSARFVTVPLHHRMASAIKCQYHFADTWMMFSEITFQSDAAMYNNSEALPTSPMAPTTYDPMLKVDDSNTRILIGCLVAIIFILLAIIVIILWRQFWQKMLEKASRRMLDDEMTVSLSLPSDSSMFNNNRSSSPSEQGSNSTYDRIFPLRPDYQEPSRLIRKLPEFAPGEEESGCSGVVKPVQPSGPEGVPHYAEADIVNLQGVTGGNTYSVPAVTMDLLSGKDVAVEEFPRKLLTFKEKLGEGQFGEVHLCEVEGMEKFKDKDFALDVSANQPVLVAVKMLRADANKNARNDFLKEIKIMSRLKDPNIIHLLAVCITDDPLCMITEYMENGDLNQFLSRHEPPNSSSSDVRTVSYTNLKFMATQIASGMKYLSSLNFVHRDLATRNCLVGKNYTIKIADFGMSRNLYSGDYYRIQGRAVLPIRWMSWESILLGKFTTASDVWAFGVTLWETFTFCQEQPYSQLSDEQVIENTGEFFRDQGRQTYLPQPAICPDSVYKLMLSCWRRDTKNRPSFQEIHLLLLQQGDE
Method: as §1
In a final reaction volume of 25 μl, DDR2 (h) (5-10 mU) is incubated with 8 mM MOPS pH 7.0, 0.2 mM EDTA, 250 μM KKSRGDYMTMQIG (SEQ ID NO:210), 10 mM MnCl2, 10 mM MgAcetate and [y-33P-ATP] (specific activity approx. 500 cpm/pmol, concentration as required). The reaction is initiated by the addition of the MgATP mix. After incubation for 40 minutes at room temperature, the reaction is stopped by the addition of 5 μl of a 3% phosphoric acid solution. […]

Chain of JAK3(h) (P52333 whole entry): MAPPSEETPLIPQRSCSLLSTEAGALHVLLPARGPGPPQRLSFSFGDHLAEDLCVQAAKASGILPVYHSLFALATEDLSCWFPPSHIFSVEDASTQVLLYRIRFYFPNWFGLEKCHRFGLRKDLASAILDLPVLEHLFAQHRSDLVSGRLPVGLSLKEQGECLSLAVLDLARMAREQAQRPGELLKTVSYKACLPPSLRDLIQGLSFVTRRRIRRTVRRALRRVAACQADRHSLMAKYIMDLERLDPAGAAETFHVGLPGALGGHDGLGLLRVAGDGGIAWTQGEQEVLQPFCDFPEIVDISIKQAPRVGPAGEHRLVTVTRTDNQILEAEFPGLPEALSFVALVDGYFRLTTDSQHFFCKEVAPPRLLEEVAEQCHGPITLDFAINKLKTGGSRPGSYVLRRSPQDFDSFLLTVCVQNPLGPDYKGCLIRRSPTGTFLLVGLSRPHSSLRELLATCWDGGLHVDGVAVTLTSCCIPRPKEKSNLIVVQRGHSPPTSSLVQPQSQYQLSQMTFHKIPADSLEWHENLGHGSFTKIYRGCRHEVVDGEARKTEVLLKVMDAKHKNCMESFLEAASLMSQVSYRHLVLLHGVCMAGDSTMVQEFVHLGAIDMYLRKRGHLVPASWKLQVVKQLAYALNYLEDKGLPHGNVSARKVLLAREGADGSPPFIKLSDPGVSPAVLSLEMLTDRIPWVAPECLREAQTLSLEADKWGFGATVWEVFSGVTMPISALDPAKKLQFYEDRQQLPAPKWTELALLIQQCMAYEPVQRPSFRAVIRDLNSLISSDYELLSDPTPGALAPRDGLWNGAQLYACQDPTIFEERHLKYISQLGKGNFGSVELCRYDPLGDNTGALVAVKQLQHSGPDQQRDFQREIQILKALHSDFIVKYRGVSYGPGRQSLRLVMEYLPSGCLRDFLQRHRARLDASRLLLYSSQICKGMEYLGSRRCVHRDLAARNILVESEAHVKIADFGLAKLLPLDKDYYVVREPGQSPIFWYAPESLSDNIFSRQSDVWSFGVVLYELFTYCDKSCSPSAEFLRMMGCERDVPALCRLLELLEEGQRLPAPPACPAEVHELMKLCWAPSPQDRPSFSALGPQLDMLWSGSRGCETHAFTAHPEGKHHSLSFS

CN1CCCC1CCNC(=O)c1cn2c3c(c(N4CCC(c5cnccn5)C4)c(F)cc3c1=O)Oc1cc3ccccc3cc1-2 (stereo not drawn) [Compound A-1]
remaining activity at 2.5 µM (JAK3(h)): 112%
remaining activity at 2.5 µM (MST2(h)): 76%
percent residual activity of c-RAF(h) (c-RAF(h)): 100%
remaining activity at 2.5 µM (ErbB4(h)): 92%
remaining activity at 2.5 µM (EphA3(h)): 91%
remaining activity at 2.5 µM (DDR2(h)): 77%

CC(=O)N1CCN(c2ccc3c(=O)c(C(=O)NCCN4CCCC4)c4n(C)c5ccccc5n4c3n2)CC1 [Compound B-1]
remaining activity at 2.5 µM (JAK3(h)): 109%
remaining activity at 2.5 µM (MST2(h)): 106%
percent residual activity of c-RAF(h) (c-RAF(h)): 96%
remaining activity at 2.5 µM (ErbB4(h)): 107%
remaining activity at 2.5 µM (EphA3(h)): 118%
remaining activity at 2.5 µM (DDR2(h)): 95%
